Data published in patent US8703824B2, “Cationic amphiphiles with mannose-mimicking head-groups and a process for the preparation thereof” (Council of Scientific & Industrial Research, priority 2010, dated 2014).

What was measured:
RAW 264.7 cells [1] = assay: Reporter gene (luciferase) expression assay, lipoplex transfection of RAW 264.7 cells; format: cell-based, murine; details: for in vitro transfection efficiencies relative to control mannosylated lipid 3: DOPE as co-lipid, lipid:DNA charge ratios 2:1 to 8:1, FIG. 4; for transfection efficiencies with DOPC as co-lipid compared to DOPE as co-lipid: lipid:DNA charge ratio of 8:1, FIG. 5
Method: The liposomes were prepared by the conventional method. Briefly, cationic lipids and co-lipids (Cholesterol, DOPE, DOPC) at 2:1 molar ratios were dissolved in chloroform. The solvent was then evaporated under a thin stream of nitrogen gas, vacuum dried for 8 h and hydrated in deionised water overnight to give a final lipid concentration of 1 mM for in vitro experiments or 5 mM for in vivo experiments. The hydrated lipid film was first vortexed for 30 seconds and then sonicated until clarity using a Branson 450 sonifier at 100% duty cycle and 25 W output power. The resulting clear aqueous liposomes were used in preparing lipoplexes.
(§1) Cells were seeded at a density of 25000 (for RAW 264.7) per well in a 96-well plate for 18-24 h before the transfection. 0.3 μg (0.9 nmol) of plasmid DNA was complexed with varying amounts of lipids (1 nmol-8 nmol) in serum free medium (total volume made up to 100 μL) for 30 minutes. The charge ratios were varied from 1:1 to 8:1 over these ranges of the lipids. Immediately prior to transfection, cells plated in the 96-well plate were washed with PBS (2×100 μL) followed by the addition of lipoplexes. After 4 h of incubation, the medium was replaced with fresh complete medium containing 10% FBS. The luciferase reporter gene activity was estimated after 24 h. The cells were washed twice with PBS (100 pt each) and lysed in 50 μL lysis buffer. Care was taken to ensure complete lysis. 10 μL Promega luciferase assay buffer was added to the 5 μL lysate in a polystyrene plate and the luciferase activity per well was estimated using a FLx800 microplate luminescence reader (Bio-Tek instruments, INC, UK). Protein concentration in each well was determined by the modified Lowry method (Lundqvist A, et al. J Immunother. 2002, 25, 445-454) and the luciferase activity was expressed as the relative light unit (RLU) per mg of the protein.
(§2) Each transfection experiment was repeated two times on two different days. The transfection values reported were average values from two replicate transfection plates assayed on the same day. When mannan was used, the cells were pretreated for 30 mins at 37° C., 5% CO2 with mannan (50 μg), and the transfection was carried out in its presence. After 4 h at 37° C., the medium was replaced with fresh complete medium without mannan and the transfection activity was evaluated after 24 h as described above.

NIH3T3 cells = assay: Transfection of NIH3T3 cells (no mannose receptor) in presence and absence of mannan; format: cell-based, murine; details: DOPE as co-lipid, lipid:DNA ratio 8:1 to 1:1, 50 μg mannan, FIGS. 6-8
Method: as §1, §2

RAW 264.7 cells [2] = assay: Mannose receptor specific transfection of RAW 264.7 cells in presence and absence of mannan; format: cell-based, murine; details: DOPE as co-lipid; lipid:DNA ratio 8:1 to 1:1; 50 μg mannan; FIGS. 6-8
Method: as §1, §2

[3] = system: mouse bone marrow derived dendritic cells; assay: DC-transfection with pα5GFP lipoplexes, flow cytometric analysis of GFP expression; format: cell-based, C57BL/6J mice; details: mbmDCs; for efficacies in delivering genes to dendritic cells relative to mannosyl analog 3: flow cytometry (FIG. 11) and fluorescence microscopy (FIG. 12)
Method: Primary mbmDCs were isolated using a previously described procedure (Inaba K, et al. J Exp Med 1992; 176:1693-1702). Briefly, bone marrow collected from tibias and fibulas of male C57BL/6 mice was passed through a nylon mesh to remove bone and debris, and resuspended in complete DC medium (RPMI-1640 containing 10% FBS, 50 μM β-mercaptoethanol, 2 mM glutamine, 1% NEAA, 20 ng/mL GM-CSF and 10 ng/mL IL-4, 1% antibiotic solution). Cells were supplemented with fresh DC medium every two days. After 6 days, the aggregated cells were dislodged by gently pipetting RPMI over the adherent stroma. The dislodged cells were pulled together and centrifuged at 280 g for […] at room temperature. The supernatant was discarded. The pellets were first resuspended in complete DC medium at 1×10^6 cells/mL and finally placed in 100 mm cell culture petri dishes at 1×10^7 cells/dish in 10 mL medium per dish. After 24 h, the nonadherent cells were collected by gently swirling the dish and were used for transfection and flow cytometry experiments. Cultures were maintained in a humidified atmosphere with 5% CO2 at 37° C.
First, the transfection efficiency of the lipids 1, 2 & 3 were evaluated in mouse bone marrow derived dendritic cells. To this end, the immature dendritic cells were isolated from the bone marrow of C57BL/6J mice by culturing with GM-CSF and IL-4 following the protocol described above. […] The profiles of the DC markers were monitored by flow cytometry. […] After confirming the presence of these expected DC markers on the surface of the isolated DCs, the transfection efficiencies of the cationic amphiphiles 1, 2 & 3 were evaluated in mbmDCs. […] Lipoplexes containing 3 μg of plasmid DNA encoding green fluorescence protein (pα5GFP) and 8 nmol cationic amphiphiles 1, 2 & 3 were added to the cells and incubated for 4 h at 37° C. in serum free medium with 5% CO2. […] The transfection efficiencies of the cationic amphiphiles 1, 2 & 3 were measured by Flow cytometric analysis.

[4] = Dendritic cell based genetic immunization (s.c. pre-transfected mbmDCs), anti β-gal antibody ELISA; format: in vivo, C57BL/6J mice; details: s.c. 5×10^5 pre-transfected mbmDCs twice with 7-day interval; sera two weeks after second immunization; Part A, FIG. 13
Method: The transfected mbmDCs were harvested by DC isolation protocol described above and washed with PBS (2×100 μL). The cells were resuspended in HBSS medium at 5×10^5 cells/100 μL. 6-8 weeks old female C57BL/6J mice (n=5, each weighing 20-22 g) were immunized (s.c.) with 100 μL of transfected mbmDCs (˜5×10^5 cells) twice with a 7-day interval. Two weeks after the second immunization, mice were sacrificed and sera & spleens were collected for immune response assays.
Anti-β-gal antibodies were measured using an enzyme linked immunosorbent (ELISA) assay as described earlier (McKeever, U. et al. Vaccine 2002; 20:1524-1531). Briefly, 96 well ELISA plates were coated with β-gal protein (0.3 μg per well) using a 5 μg/mL stock solution prepared in PBS. Plates were washed with PBS (3×200 μL) and blocked with 1% BSA in PBS at room temperature for 2 h. The plates were then washed with PBS containing 0.05% Tween-20 (3×200 μL) and incubated with mouse sera (100 μL) at room temperature for 2 h. The plates were again washed with PBS containing 0.05% Tween-20 (3×200 μL) and 100 μL of diluted (1:1000) anti-mouse antibody conjugated to horse radish peroxidase was added to each well. […] The plates were then incubated in dark with 100 μL of ABTS (Calbiochem, USA) per well at 25° C. for 10 min and the absorbance was measured at 405 nm by ELISA reader (Bio-Tek instruments Inc, UK).

Substance | in vitro transfection efficiencies relative to control mannosylated lipid 3 (RAW 264.7 cells [1]) | transfection efficiencies with DOPC as co-lipid compared to DOPE as co-lipid (RAW 264.7 cells [1]) | transfection efficiency when cells were pretreated with mannan (NIH3T3 cells) | transfection efficiencies when cells were pretreated with mannan (RAW 264.7 cells [2]) | efficacies in delivering genes to dendritic cells relative to mannosyl analog 3 [3] | anti β-gal antibody responses relative to mannosyl analog 3 [4] | DC transfection efficiency (GFP expression by FACS) ([3]; 3 μg pα5GFP plasmid, 8 nmol cationic amphiphile, FIG. 11) [%]
2-[(N,N-di-n-hexadecyl-N-methyl)amino]-ethylL-L-lysyl-quinate chloride [lipid 2] | higher in vitro transfection efficiencies than their control mannosylated lipid 3 | enhanced further | did not get affected | significantly diminished | superior to those of their mannosyl analog 3 | higher anti β-gal antibody responses | 
2-[(N,N-di-n-hexadecyl-N-methyl)amino]-ethylL-L-lysyl-shikimate chloride [lipid 1] | higher in vitro transfection efficiencies than their control mannosylated lipid 3 | enhanced further | did not get affected | significantly diminished | superior to those of their mannosyl analog 3 | higher anti β-gal antibody responses | 
2-[(N,N-di-n-hexadecyl-N-methyl)amino]-ethylL-L-lysyl-β-D-Mannoside chloride [lipid 3, reference compound] |  | enhanced further | did not get affected | significantly diminished |  |  | 5
